In PMC9232612, “A phase 1b randomised controlled trial of a glucagon-like peptide-1 and glucagon receptor dual agonist IBI362 (LY3305677) in Chinese patients with type 2 diabetes” (Nature Communications, 2022):

How the values were obtained:
Format in all cases: in vivo, human
[1] = tested on: Chinese patients with T2D; experiment: Alanine aminotransferase and aspartate aminotransferase levels
Description: (§1) Primary outcomes of the study were the safety and tolerability of IBI362. Safety assessment included adverse events, physical examinations, laboratory tests (including lipase, amylase and calcitonin level measures), vital signs and 12-lead electrocardiogram. Adverse events were categorized according to the Medical Dictionary for Regulatory Activities system organ classes (SOCs) and preferred terms. Treatment-emergent adverse events (TEAEs) were monitored from the time of informed consent to the safety follow-up period. The severity of TEAEs (mild, moderate or severe) and the association between an event and the study drug were assessed by investigators based on pre-specified criteria.
CFB in ALT (U/L), mean (SD)
CFB in AST (U/L), mean (SD)
Fig. S2: Change from baseline in ALT and AST levels over time.
a. CFB in ALT levels over time. b. CFB in AST levels over time. Data are plotted as means +/- SD.
ALT = alanine aminotransferase; AST = aspartate aminotransferase; CFB = change from baseline;
SD = standard deviation. Source data are provided as a Source Data file. […]

[2] = tested on: Chinese patients with T2D; experiment: Mixed-meal tolerance test (MTT): insulin
Protocol: (§2) HbA1c (2200101, Bio-Rad, USA), blood glucose (05168791190, Roche Diagnostics, Germany), insulin (12017547122, Roche Diagnostics, Germany), C peptide (03184897190, Roche Diagnostics, Germany), total GLP-1 (GLP-1 [7–36] amide and its metabolite, GLP-1 [9–36] amide, 10-1278-01, Mercodia AB, Sweden) and OXM (AL-139, AnshLabs, USA) tests were performed according to the manufactures’ instruction manuals in a central laboratory (KingMed Diagnostics, Guangzhou, China). HbA1c was measured using a Bio-rad D-100 Haemoglobin Testing System (Bio-rad). Blood glucose was measured using a Roche Cobas c702 analyser (Roche Diagnostics). Insulin and C peptide were measured using a Roche […] analyser (Roche Diagnostics). GLP-1 and OXM were measured using a Tecan Infinite M Plex microplate reader (TECAN).
Standard non-compartmental pharmacokinetics methods were used to analyze IBI362 plasma concentration data using Pkanalix 2020R1 (Lixoft, Antony, France). Secondary efficacy outcomes included change from baseline to week 12 in HbA1c, fasting plasma glucose (FPG), fasting insulin levels, change from baseline to week 12 in post-mixed-meal tolerance test (post-MTT) glucose, insulin, C peptide, GLP-1 and OXM levels, as well as seven-point self-measured blood glucose (SMBG) profile. […]
(§3) 3. Standard meal test (MTT) collection measures included: insulin, C-peptide, plasma glucose, glucagon, endogenous OXM, and endogenous GLP-1. The sampling points include: fasting, 30 min, 1h, 2h, 3h and 4h.
(§4) A total of 9 mL blood will be collected from each blood collection point. See the manual of the central laboratory for the detailed operation process. Fasting state refers to fasting for 10 hours. [ The standard meal is
(§5) instant noodles. The master Kang roast beef noodles (bucket noodles) purchased by the sponsor in a unified manner are removed from the oil bag. The noodles are soaked in boiled water and then removed. The seasoning
(§6) bag is added and mixed well. The time is counted from the first bite of eating. The noodles are eaten within 10 minutes, and 200 mL of water is drunk; or the instant noodles are directly opened with 200 mL of boiled
water to ensure that the noodles are eaten and the water or soup is drunk]. Visit days when MTT test is performed: 1 day prior to Cycle 1 administration, Day 80 (D80). […]
(§7) ● Test by central laboratory

[3] = tested on: Chinese patients with T2D; experiment: Mixed-meal tolerance test (MTT): C peptide
Protocol: as §2
Standard non-compartmental pharmacokinetics methods were used to analyze IBI362 plasma concentration data using Pkanalix 2020R1 (Lixoft, Antony, France). Secondary efficacy outcomes included change from baseline to week 12 in HbA1c, fasting plasma glucose (FPG), fasting insulin levels, change from baseline to week 12 in post-mixed-meal tolerance test (post-MTT) glucose, insulin, C peptide, GLP-1 and OXM levels, as well as seven-point self-measured blood glucose (SMBG) profile.
IBI362 Innovent Biologics (Suzhou) Co., Ltd. CIBI362A101
as §3, §4, §5, §6
water to ensure that the noodles are eaten and the water or soup is drunk]. Visit days when MTT test is performed: 1 day prior to Cycle 1 administration, Day 80 (D80).
4. If the patient experiences drug-related adverse events during dose escalation and meets the protocol-specified tolerance criteria, dose adjustment is required at the investigator's discretion, and a standard meal test
should be performed 48 hours after the first dose after dose adjustment.
as §7

[4] = tested on: Chinese patients with T2D; experiment: Blood pressure (systolic, diastolic); settings: mean
Description: as §1
Fig. S7: Change from baseline in waist circumference, BMI and blood pressure at week 12. a. CFB in waist circumference at week 12. b. CFB in BMI at week 12. c. CFB in blood pressure at week 12. Data are plotted as means +/- SD. a. IBI362 3.0 mg n = 7; IBI362 4.5 mg n = 5; IBI362 6.0 mg n = 8; Pooled placebo n = 11; Dulaglutide n = 6. b. IBI362 3.0 mg n = 7; IBI362 4.5 mg n = 5; […]
mg n = 6; IBI362 6.0 mg n = 8; Pooled placebo n = 11; Dulaglutide n = 6. BMI = body-mass index; CFB = change from baseline; DBP = diastolic blood pressure; SBP = systolic blood pressure; SD = standard deviation. Source data are provided as a Source Data file.
CFB in BMI at week 12 (kg/m2), […]
at week 12 (mm Hg), mean (SD)
CFB in waist circumference at week 12 (cm), mean (SD) […]

[5] = week 12, 0 min, 3.0 mg cohort, n=7
[6] = week 12, 0 min, 4.5 mg cohort, n=5
[7] = week 12, 0 min, 6.0 mg cohort, n=8
[8] = week 12, 30 min, 3.0 mg cohort, n=7
[9] = week 12, 30 min, 4.5 mg cohort, n=5
[10] = week 12, 30 min, 6.0 mg cohort, n=8
[11] = week 12, 60 min, 3.0 mg cohort, n=7
[12] = week 12, 60 min, 4.5 mg cohort, n=5
[13] = week 12, 60 min, 6.0 mg cohort, n=8
[14] = week 12, 120 min, 3.0 mg cohort, n=7
[15] = week 12, 120 min, 4.5 mg cohort, n=5
[16] = week 12, 120 min, 6.0 mg cohort, n=8
[17] = week 12, 180 min, 3.0 mg cohort, n=7
[18] = week 12, 180 min, 4.5 mg cohort, n=5
[19] = week 12, 180 min, 6.0 mg cohort, n=8
[20] = week 12, 240 min, 3.0 mg cohort, n=7
[21] = week 12, 240 min, 4.5 mg cohort, n=5
[22] = week 12, 240 min, 6.0 mg cohort, n=8

## CC(C)C[C@H](NC(=O)[C@H](CC(C)C)NC(=O)[C@H](Cc1c[nH]c2ccccc12)NC(=O)[C@H](CCC(=O)O)NC(=O)[C@@H](NC(=O)[C@H](Cc1ccccc1)NC(=O)[C@H](CCC(=O)O)NC(=O)[C@H](CCCCNC(=O)COCCOCCNC(=O)COCCOCCNC(=O)CC[C@H](NC(=O)CCCCCCCCCCCCCCCCCCC(=O)O)C(=O)O)NC(=O)[C@H](C)NC(=O)[C@H](CCCCN)NC(=O)[C@H](CCCCN)NC(=O)[C@H](CCC(=O)O)NC(=O)[C@H](CC(=O)O)NC(=O)[C@H](CC(C)C)NC(=O)[C@H](Cc1ccc(O)cc1)NC(=O)[C@H](CCCCN)NC(=O)[C@H](CO)NC(=O)[C@H](Cc1ccc(O)cc1)NC(=O)[C@H](CC(=O)O)NC(=O)[C@H](CO)NC(=O)[C@@H](NC(=O)[C@H](Cc1ccccc1)NC(=O)[C@@H](NC(=O)CNC(=O)[C@H](CCC(N)=O)NC(=O)C(C)(C)NC(=O)[C@@H](N)Cc1c[nH]cn1)[C@@H](C)O)[C@@H](C)O)C(C)C)C(=O)N[C@@H](CCC(=O)O)C(=O)NCC(=O)NCC(=O)N1CCC[C@H]1C(=O)N[C@@H](CO)C(=O)N[C@@H](CO)C(=O)NCC(N)=O [IBI362]
[1]; week 4, 3.0 mg cohort
  Change from baseline in ALT, mean: 3.76 U/L
  Change from baseline in AST, mean: 1.13 U/L
[1]; week 4, 4.5 mg cohort
  Change from baseline in ALT, mean: -3.50 U/L
  Change from baseline in AST, mean: -2.03 U/L
[1]; week 4, 6.0 mg cohort
  Change from baseline in ALT, mean: -7.38 U/L
  Change from baseline in AST, mean: -2.56 U/L
[1]; week 8, 3.0 mg cohort
  Change from baseline in ALT, mean: -6.34 U/L
  Change from baseline in AST, mean: -1.20 U/L
[1]; week 8, 4.5 mg cohort
  Change from baseline in ALT, mean: -7.66 U/L
  Change from baseline in AST, mean: -1.26 U/L
[1]; week 8, 6.0 mg cohort
  Change from baseline in ALT, mean: -8.50 U/L
  Change from baseline in AST, mean: -3.36 U/L
[1]; week 12, 3.0 mg cohort
  Change from baseline in ALT, mean: -6.34 U/L
  Change from baseline in AST, mean: -2.49 U/L
[1]; week 12, 4.5 mg cohort
  Change from baseline in ALT, mean: -10.66 U/L
  Change from baseline in AST, mean: -2.82 U/L
[1]; week 12, 6.0 mg cohort
  Change from baseline in ALT, mean: -8.38 U/L
  Change from baseline in AST, mean: -4.65 U/L
[2]; [5]
  Insulin during MTT, mean: 9.22 μU/mL
[2]; [6]
  Insulin during MTT, mean: 13.41 μU/mL
[2]; [7]
  Insulin during MTT, mean: 13.25 μU/mL
[2]; [8]
  Insulin during MTT, mean: 17.47 μU/mL
[2]; [9]
  Insulin during MTT, mean: 22.16 μU/mL
[2]; [10]
  Insulin during MTT, mean: 22.08 μU/mL
[2]; [11]
  Insulin during MTT, mean: 34.23 μU/mL
[2]; [12]
  Insulin during MTT, mean: 41.02 μU/mL
[2]; [13]
  Insulin during MTT, mean: 41.49 μU/mL
[2]; [14]
  Insulin during MTT, mean: 57.20 μU/mL
[2]; [15]
  Insulin during MTT, mean: 45.65 μU/mL
[2]; [16]
  Insulin during MTT, mean: 64.69 μU/mL
[2]; [17]
  Insulin during MTT, mean: 39.93 μU/mL
[2]; [18]
  Insulin during MTT, mean: 50.30 μU/mL
[2]; [19]
  Insulin during MTT, mean: 46.96 μU/mL
[2]; [20]
  Insulin during MTT, mean: 23.01 μU/mL
[2]; [21]
  Insulin during MTT, mean: 25.01 μU/mL
[2]; [22]
  Insulin during MTT, mean: 24.25 μU/mL
[3]; [5]
  C peptide during MTT, mean: 2.67 ng/mL
[3]; [6]
  C peptide during MTT, mean: 2.81 ng/mL
[3]; [7]
  C peptide during MTT, mean: 2.79 ng/mL
[3]; [8]
  C peptide during MTT, mean: 3.41 ng/mL
[3]; [9]
  C peptide during MTT, mean: 3.46 ng/mL
[3]; [10]
  C peptide during MTT, mean: 3.54 ng/mL
[3]; [11]
  C peptide during MTT, mean: 5.15 ng/mL
[3]; [12]
  C peptide during MTT, mean: 4.85 ng/mL
[3]; [13]
  C peptide during MTT, mean: 5.24 ng/mL
[3]; [14]
  C peptide during MTT, mean: 8.22 ng/mL
[3]; [15]
  C peptide during MTT, mean: 6.34 ng/mL
[3]; [16]
  C peptide during MTT, mean: 8.25 ng/mL
[3]; [17]
  C peptide during MTT, mean: 7.74 ng/mL
[3]; [18]
  C peptide during MTT, mean: 7.22 ng/mL
[3]; [19]
  C peptide during MTT, mean: 7.50 ng/mL
[3]; [20]
  C peptide during MTT, mean: 5.91 ng/mL
[3]; [21]
  C peptide during MTT, mean: 5.24 ng/mL
[3]; [22]
  C peptide during MTT, mean: 5.41 ng/mL
[4]; IBI362 3.0 mg
  Change from baseline to week 12 in blood pressure, diastolic: -1.4 mm Hg
  Change from baseline to week 12 in blood pressure, systolic: -8.1 mm Hg
[4]; IBI362 4.5 mg
  Change from baseline to week 12 in blood pressure, diastolic: -5.2 mm Hg
  Change from baseline to week 12 in blood pressure, systolic: -6.7 mm Hg
[4]; IBI362 6.0 mg
  Change from baseline to week 12 in blood pressure, diastolic: 2.3 mm Hg
  Change from baseline to week 12 in blood pressure, systolic: -3.3 mm Hg
